Where a name gives a salt, the structure may show the parent alone.
Each compound was assayed against T1, acetylcholinesterase (Mus musculus, UniProt P21836) (assay: Assay of acetylcholinesterase inhibitory activity (Elman's method, mouse brain homogenate)).
T1 construct: The mouse brain was homogenised by means of a 5-fold amount of a 100 mM phosphate buffer (pH 8.0) to prepare an enzyme sample; from tissue; host or cells: brain of male ddY mice, 5 to 7 weeks old (Japan SLC)
T1 sequence (P21836 32-614): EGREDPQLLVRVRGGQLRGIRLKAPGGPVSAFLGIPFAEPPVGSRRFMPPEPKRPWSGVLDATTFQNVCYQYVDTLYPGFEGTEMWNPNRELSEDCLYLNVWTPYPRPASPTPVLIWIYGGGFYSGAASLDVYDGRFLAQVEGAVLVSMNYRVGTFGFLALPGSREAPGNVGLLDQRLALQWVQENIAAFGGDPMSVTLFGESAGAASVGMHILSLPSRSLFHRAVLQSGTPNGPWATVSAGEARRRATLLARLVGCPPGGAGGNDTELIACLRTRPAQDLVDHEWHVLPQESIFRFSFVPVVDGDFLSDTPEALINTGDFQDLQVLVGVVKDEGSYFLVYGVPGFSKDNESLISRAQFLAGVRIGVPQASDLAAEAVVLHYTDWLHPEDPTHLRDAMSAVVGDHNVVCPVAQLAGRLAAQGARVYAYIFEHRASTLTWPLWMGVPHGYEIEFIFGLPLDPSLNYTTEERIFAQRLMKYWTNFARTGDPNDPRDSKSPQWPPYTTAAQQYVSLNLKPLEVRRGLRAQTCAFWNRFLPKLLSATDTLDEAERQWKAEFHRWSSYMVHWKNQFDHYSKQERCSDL
Type: biochemical

Structure (SMILES) | IC50 [nM]
CCc1ccc2c(C(=O)CCC3CCN(Cc4ccccc4)CC3)cn(C)c2c1 [1-16] | 4
Cn1cc(C(=O)CCC2CCN(Cc3cccs3)CC2)c2ccccc21 [Compound No. 1-116, 1-Methyl-3-{3-[1-(2-thienylmethyl)-4-piperidyl]propionyl}indole] | 10
Cn1cc(C(=O)CCC2CCN(Cc3cccc(Cl)c3)CC2)c2cc(Cl)ccc21 [Compound No. 1-304, 1-Methyl-3-{3-[1-(3-chlorobenzyl)-4-piperidyl]propionyl}-5-chloroindole hydrochloride] | 7.5
Cn1cc(C(=O)CCC2CCN(Cc3cccc(F)c3)CC2)c2cc(Cl)ccc21 [Compound No. 1-309, 1-Methyl-3-{3-[1-(3-fluorobenzyl)-4-piperidyl]propionyl}-5-chloroindole] | 8.2
Cn1nc(C(=O)CCC2CCN(Cc3ccccc3Cl)CC2)c2ccccc21 [Compound No. 2-96, 1-Methyl-3-{3-[1-(2-chlorobenzyl)-4-piperidyl]propionyl}indazole hydrochloride] | 13.9
Cn1cc(C(=O)CCC2CCN(Cc3cccc(F)c3)CC2)c2ccccc21 [Compound No. 1-78, 1-Methyl-3-{3-[1-(3-fluorobenzyl)-4-piperidyl]propionyl}indole] | 8
Cn1cc(C(=O)CCC2CCN(Cc3cccc(F)c3)CC2)c2cc(F)ccc21 [Compound No. 1-313, 1-Methyl-3-{3-[1-(3-fluorobenzyl)-4-piperidyl]propionyl}-5-fluoroindole] | 2
Cn1cc(C(=O)CCC2CCN(Cc3ccccc3)CC2)c2ccc(Cl)cc21 [Compound No. 1-30, 1-Methyl-3-[3-(1-benzyl-4-piperidyl)propionyl]-6-chloroindole] | 9
Cn1nc(C(=O)CCC2CCN(Cc3ccccc3)CC2)c2ccccc21 [Compound No. 2-3, 1-Methyl-3-[3-(1-benzyl-4-piperidyl)propionyl]indazole hydrochloride] | 12
Cn1nc(C(=O)CCC2CCN(Cc3ccccc3)CC2)c2ccccc21 [Compound No. 2-2, 1-Methyl-3-[3-(1-benzyl-4-piperidyl)propionyl]indazole] | 10
Cn1cc(C(=O)CCC2CCN(Cc3ccccc3)CC2)c2cc(F)ccc21 [Compound No. 1-40, 1-Methyl-3-[3-(1-benzyl-4-piperidyl)propionyl]-5-fluoroindole] | 4
Cn1nc(C(=O)CCC2CCN(Cc3cccc(Cl)c3)CC2)c2ccccc21 [Compound No. 2-99, 1-Methyl-3-{3-[1-(3-chlorobenzyl)-4-piperidyl]-propionyl}indazole hydrochloride] | 31.7
Cn1cc(C(=O)CCC2CCN(Cc3cccc(F)c3)CC2)c2cc(F)ccc21 [Compound No. 1-314, 1-Methyl-3-{3-[1-(3-fluorobenzyl)-4-piperidyl]propionyl}-5-fluoroindole hydrochloride] | 3.4
Cn1nc(C(=O)CCC2CCN(Cc3ccccc3)CC2)c2c(Cl)cccc21 [2-24] | 10
Cn1cc(C(=O)CCC2CCN(Cc3cccc(F)c3)CC2)c2cc(F)ccc21 [1-315, 1-Methyl-3-{3-[1-(3-fluorobenzyl)-4-piperidyl]propionyl}-5-fluoroindole oxalate] | 2.3
Cn1cc(C(=O)CCC2CCN(Cc3ccccc3)CC2)c2ccccc21 [Compound No. 1-2, 1-Methyl-3-[3-(1-benzyl-4-piperidyl)propionyl]indole] | 3.3
Cc1ccc2c(c1)c(C(=O)CCC1CCN(Cc3ccccc3)CC1)nn2C [2-8] | 13
Cn1cc(C(=O)CCC2CCN(Cc3ccccc3)CC2)c2cc(Cl)ccc21 [Compound No. 1-28, 1-Methyl-3-[3-(1-benzyl-4-piperidyl)propionyl]-5-chloroindole] | 4
Cn1nc(C(=O)C=CC2CCN(Cc3ccccc3)CC2)c2c(Cl)cccc21 [2-23] | 11
Cn1cc(C(=O)CCC2CCN(Cc3ccccc3)CC2)c2ccccc21 [Compound No. 1-4, 1-Methyl-3-[3-(1-benzyl-4-piperidyl)propionyl]indole oxalate] | 10
Cc1ccc2c(C(=O)C=CC3CCN(Cc4ccccc4)CC3)nn(C)c2c1 [Compound No. 2-9] | 14
Cn1cc(C(=O)CCC2CCN(Cc3cccc(Cl)c3)CC2)c2ccccc21 [Compound No. 1-85, 1-Methyl-3-{3-[1-(3-chlorobenzyl)-4-piperidyl]propionyl}indole hydrochloride] | 6.5

From EP0562832A1, “Indole and indazole derivatives, for the treatment and prophylaxis of cerebral disorders, their preparation and their use” (priority 1992, dated 1993)
